Experiment [1] has as its target Acetylcholine receptor subunit alpha (Homo sapiens, UniProt P02708). In words: Selectivity interaction (Panel of kinases, GPCRs, ion channels and transporters (enzymatic assay)) EUB0000266bCl CHRNA1.
The target in experiment [2] is Tyrosine-protein kinase SYK (Homo sapiens, UniProt P43405). The experiment is described as follows: Selectivity interaction (KinomeScan (DiscoverX)) EUB0000092b SYK. To be noted: at 10 µM.
In experiment [3] the target is T1, Dual specificity mitogen-activated protein kinase kinase 4 (Homo sapiens) (UniProt P45985).
T1 sequence (whole entry): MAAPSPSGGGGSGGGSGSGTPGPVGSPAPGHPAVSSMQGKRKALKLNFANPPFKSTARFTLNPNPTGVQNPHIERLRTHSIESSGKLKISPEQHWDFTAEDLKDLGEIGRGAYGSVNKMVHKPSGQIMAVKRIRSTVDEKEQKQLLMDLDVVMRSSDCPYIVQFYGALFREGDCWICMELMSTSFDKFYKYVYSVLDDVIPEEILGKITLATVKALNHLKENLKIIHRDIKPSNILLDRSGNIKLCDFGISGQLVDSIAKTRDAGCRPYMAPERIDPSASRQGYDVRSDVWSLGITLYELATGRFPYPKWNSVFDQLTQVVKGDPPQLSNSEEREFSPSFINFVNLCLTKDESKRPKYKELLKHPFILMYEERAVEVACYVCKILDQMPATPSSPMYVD
In words: Selectivity interaction (KinomeScan (DiscoverX)) EUB0001550a MAP2K4. To be noted: at 1 µM.

Experiment [4] concerns the target T2, Serine/threonine-protein kinase ICK (Homo sapiens) (UniProt Q9UPZ9).
T2 sequence (whole entry): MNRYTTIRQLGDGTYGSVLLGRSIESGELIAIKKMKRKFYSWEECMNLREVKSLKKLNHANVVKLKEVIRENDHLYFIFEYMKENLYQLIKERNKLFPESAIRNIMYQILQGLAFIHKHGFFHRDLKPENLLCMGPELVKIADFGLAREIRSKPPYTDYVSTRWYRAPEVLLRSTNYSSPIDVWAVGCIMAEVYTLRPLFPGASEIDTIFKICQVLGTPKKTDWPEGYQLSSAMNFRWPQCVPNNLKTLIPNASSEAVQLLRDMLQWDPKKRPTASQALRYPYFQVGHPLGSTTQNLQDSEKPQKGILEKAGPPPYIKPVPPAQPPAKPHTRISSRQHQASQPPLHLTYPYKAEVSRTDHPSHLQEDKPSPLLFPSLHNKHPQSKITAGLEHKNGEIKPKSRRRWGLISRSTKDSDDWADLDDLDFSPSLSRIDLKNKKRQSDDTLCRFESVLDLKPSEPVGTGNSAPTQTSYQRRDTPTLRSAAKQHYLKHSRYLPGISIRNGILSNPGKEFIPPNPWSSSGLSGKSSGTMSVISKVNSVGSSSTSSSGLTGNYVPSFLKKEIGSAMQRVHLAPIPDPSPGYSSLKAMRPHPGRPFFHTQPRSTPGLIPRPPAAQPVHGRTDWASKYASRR
The experiment is described as follows: Selectivity interaction (KinomeScan (DiscoverX)) EUB0000695a ICK. To be noted: at 100 nM.

The target in experiment [5] is Protein polybromo-1 (Homo sapiens) (UniProt Q86U86). The experiment is described as follows: Selectivity interaction (Bromodomain panel (DSF asssay)) EUB0000270b PBRM1.
For experiment [6], the target named is Tyrosine-protein kinase ABL1 (Homo sapiens, UniProt P00519). In words: Selectivity interaction (KinomeScan (DiscoverX)) EUB0000045b ABL1. The note with it: at 1 µM.
Chain of Tyrosine-protein kinase ABL1 (P00519 whole entry): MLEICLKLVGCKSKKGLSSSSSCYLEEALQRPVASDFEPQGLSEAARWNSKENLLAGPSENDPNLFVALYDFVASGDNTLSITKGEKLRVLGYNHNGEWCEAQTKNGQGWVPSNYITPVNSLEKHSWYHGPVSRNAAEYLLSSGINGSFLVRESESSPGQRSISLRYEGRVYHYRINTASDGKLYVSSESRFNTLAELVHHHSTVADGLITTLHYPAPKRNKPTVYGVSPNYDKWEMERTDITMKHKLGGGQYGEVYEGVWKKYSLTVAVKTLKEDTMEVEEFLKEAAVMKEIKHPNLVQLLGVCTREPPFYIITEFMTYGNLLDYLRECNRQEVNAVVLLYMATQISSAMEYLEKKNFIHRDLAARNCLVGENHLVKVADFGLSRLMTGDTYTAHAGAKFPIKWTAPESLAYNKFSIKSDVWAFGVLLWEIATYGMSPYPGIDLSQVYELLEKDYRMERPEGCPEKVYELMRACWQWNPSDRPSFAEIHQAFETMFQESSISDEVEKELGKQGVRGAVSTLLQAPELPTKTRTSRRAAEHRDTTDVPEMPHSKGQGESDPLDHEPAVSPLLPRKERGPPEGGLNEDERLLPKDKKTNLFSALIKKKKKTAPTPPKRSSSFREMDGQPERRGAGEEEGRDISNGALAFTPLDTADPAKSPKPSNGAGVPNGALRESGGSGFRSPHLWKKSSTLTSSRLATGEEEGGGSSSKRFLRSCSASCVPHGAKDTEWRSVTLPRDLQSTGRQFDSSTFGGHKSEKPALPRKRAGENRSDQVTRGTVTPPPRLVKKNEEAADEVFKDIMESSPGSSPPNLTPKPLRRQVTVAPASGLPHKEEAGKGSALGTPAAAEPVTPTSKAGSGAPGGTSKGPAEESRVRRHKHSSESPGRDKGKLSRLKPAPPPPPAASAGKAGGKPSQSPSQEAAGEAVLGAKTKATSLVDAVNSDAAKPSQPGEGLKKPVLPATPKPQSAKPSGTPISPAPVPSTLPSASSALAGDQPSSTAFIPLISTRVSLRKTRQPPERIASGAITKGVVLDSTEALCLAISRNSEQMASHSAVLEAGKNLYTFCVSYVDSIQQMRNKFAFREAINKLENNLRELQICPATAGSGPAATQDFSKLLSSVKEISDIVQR
Experiment [7] concerns the target Dual specificity protein kinase CLK4 (Homo sapiens, UniProt Q9HAZ1). The experiment is described as follows: Selectivity interaction (KinomeScan (DiscoverX)) EUB0000607a CLK4. The note with it: at 10 µM.
The target in experiment [8] is Tyrosine-protein kinase Yes (Homo sapiens) (UniProt P07947). The experiment is described as follows: Selectivity interaction (Kinase panel (Invitrogen)) EUB0000639a YES1. To be noted: at 200 nM.
Chain of Tyrosine-protein kinase Yes (Homo sapiens) (P07947 2-543 limits assumed): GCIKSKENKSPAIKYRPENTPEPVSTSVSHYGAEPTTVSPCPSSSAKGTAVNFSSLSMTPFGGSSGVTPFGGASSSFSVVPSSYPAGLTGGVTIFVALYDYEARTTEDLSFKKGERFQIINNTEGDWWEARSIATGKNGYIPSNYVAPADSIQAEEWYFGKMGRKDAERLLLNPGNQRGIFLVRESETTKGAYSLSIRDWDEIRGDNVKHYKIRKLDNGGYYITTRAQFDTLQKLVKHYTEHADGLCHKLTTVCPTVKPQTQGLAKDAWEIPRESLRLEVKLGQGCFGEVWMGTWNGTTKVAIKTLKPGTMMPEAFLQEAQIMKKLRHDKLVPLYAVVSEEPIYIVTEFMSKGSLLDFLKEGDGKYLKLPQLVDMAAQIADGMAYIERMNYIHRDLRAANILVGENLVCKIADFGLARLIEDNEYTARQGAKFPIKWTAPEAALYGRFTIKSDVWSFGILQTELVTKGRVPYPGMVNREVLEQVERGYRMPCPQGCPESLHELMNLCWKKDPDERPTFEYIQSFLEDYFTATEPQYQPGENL
For experiment [9], the target named is T3, Testis-specific serine/threonine-protein kinase 3 (Homo sapiens) (UniProt Q96PN8).
T3 sequence (whole entry): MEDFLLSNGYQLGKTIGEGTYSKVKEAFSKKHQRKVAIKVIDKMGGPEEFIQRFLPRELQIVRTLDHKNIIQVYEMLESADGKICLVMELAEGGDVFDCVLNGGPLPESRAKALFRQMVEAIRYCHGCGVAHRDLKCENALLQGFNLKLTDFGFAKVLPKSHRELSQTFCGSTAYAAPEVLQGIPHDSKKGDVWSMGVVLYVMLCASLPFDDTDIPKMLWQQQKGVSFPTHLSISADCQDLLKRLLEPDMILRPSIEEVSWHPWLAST
In words: Selectivity interaction (Kinase panel (Invitrogen)) EUB0000639a TSSK3. To be noted: at 200 nM.

The target in experiment [10] is Tyrosine-protein kinase Lck (Homo sapiens, UniProt P06239).
Chain of Tyrosine-protein kinase Lck (P06239 whole entry): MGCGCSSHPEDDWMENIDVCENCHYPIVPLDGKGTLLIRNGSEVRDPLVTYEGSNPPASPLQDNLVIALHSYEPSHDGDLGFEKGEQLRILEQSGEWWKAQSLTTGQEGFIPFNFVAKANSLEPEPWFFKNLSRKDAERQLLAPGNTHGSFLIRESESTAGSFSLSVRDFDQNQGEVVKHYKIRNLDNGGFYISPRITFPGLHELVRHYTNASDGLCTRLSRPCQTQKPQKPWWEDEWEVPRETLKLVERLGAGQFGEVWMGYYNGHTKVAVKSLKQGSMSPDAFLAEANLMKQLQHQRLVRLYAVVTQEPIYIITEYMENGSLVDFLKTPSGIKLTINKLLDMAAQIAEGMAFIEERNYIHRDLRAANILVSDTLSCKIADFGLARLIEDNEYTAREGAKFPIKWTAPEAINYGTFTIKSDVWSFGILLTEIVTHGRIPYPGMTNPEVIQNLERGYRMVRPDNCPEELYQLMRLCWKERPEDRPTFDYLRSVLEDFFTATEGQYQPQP
In experiment [11] the target is Tyrosine-protein kinase receptor UFO (Homo sapiens) (UniProt P30530). The experiment is described as follows: Selectivity interaction (KinomeScan (DiscoverX)) EUB0000595a AXL. The note with it: at 10 µM.
Chain of Tyrosine-protein kinase receptor UFO (Homo sapiens) (P30530 whole entry): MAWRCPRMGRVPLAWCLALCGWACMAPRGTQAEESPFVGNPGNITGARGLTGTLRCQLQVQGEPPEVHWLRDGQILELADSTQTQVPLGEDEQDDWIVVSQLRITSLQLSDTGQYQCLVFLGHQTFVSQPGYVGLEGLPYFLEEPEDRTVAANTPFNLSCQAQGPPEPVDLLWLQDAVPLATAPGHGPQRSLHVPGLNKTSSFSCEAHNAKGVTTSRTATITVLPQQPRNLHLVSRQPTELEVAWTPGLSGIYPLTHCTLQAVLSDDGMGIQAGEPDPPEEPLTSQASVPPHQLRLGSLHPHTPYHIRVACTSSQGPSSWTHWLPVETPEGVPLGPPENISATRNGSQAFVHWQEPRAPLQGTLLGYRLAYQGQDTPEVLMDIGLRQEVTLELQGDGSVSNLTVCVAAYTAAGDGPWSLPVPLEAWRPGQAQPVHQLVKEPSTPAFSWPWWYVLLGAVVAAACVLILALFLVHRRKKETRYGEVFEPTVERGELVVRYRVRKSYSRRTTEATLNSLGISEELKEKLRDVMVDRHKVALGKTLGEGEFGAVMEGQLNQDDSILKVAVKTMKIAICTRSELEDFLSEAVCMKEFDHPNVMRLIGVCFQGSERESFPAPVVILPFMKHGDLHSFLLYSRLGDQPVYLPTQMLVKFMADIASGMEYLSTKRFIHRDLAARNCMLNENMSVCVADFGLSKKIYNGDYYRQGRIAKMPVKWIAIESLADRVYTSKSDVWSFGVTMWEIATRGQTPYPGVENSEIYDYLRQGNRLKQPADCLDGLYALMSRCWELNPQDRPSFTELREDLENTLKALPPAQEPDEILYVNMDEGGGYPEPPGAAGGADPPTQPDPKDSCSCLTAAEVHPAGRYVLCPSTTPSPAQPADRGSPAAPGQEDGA
In experiment [12] the target is Receptor-interacting serine/threonine-protein kinase 3 (Homo sapiens) (UniProt Q9Y572). In words: Selectivity interaction (ActivX KiNativ screen (ex vivo kinase selectivity in human PBMCs)) EUB0001619a RIPK3. It is filed as cell-based. To be noted: PBMC, at 1 µM.
Experiment [13] concerns the target cAMP-dependent protein kinase catalytic subunit alpha (Homo sapiens, UniProt P17612). The experiment is described as follows: Selectivity interaction (KinomeScan (DiscoverX)) EUB0001619a PRKACA. The note with it: at 1 µM.
Experiment [14] concerns the target Mitogen-activated protein kinase kinase kinase kinase 5 (Homo sapiens) (UniProt Q9Y4K4). In words: Selectivity interaction (Kinase panel (KiNativ target engagement assay in Jurkat cells)) EUB0001635a MAP4K5. It is filed as cell-based. The note with it: Selectivity number of off-targets 0.0, Selectivity number of targets 233.0, Source Knowledge https://www.sciencedirect.com/science/article/pii/S2451945619300674?via%3Dihub, at 1 µM.

For experiment [15], the target named is LIM domain kinase 2 (Homo sapiens) (UniProt P53671). In words: Selectivity interaction (KinomeScan (DiscoverX)) EUB0000618a LIMK2. The note with it: at 10 µM.
Chain of LIM domain kinase 2 (Homo sapiens) (P53671 whole entry, looked up, the tested form may be a part): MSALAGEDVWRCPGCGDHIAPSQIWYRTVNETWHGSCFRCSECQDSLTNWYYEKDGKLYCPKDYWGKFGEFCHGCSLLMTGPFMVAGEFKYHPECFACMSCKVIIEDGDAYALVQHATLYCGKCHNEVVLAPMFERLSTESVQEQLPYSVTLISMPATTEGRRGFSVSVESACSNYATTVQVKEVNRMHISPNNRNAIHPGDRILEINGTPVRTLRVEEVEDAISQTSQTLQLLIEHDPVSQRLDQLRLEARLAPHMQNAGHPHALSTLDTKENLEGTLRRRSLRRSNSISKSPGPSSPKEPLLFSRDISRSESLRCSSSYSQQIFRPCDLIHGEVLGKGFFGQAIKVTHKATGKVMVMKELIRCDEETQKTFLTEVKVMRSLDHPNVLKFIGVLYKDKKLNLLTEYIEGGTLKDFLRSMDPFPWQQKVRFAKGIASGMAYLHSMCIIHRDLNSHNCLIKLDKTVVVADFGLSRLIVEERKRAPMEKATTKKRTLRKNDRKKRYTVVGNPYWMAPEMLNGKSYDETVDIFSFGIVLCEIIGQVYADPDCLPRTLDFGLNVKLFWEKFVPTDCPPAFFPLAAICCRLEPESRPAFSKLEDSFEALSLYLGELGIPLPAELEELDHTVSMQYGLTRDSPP
Experiment [16] concerns the target T4, MAP kinase-activated protein kinase 5 (Homo sapiens) (UniProt Q8IW41).
T4 sequence (whole entry): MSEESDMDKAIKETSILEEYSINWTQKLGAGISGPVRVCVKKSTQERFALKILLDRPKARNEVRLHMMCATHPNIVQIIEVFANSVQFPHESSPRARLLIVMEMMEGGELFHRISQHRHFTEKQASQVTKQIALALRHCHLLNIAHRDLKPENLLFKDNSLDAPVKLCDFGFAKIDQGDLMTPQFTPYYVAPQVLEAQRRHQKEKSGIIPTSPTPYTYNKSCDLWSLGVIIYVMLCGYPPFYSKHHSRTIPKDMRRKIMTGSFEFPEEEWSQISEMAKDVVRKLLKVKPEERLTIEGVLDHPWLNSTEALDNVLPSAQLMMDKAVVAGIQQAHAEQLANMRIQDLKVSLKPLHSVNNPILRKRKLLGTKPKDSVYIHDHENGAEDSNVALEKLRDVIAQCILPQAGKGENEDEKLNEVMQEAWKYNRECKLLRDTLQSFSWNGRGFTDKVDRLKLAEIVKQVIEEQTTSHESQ
The experiment is described as follows: Selectivity interaction (KinomeScan (DiscoverX)) EUB0000618a MAPKAPK5. The note with it: at 10 µM.

The structures appear in SMILES notation.

Chain of Dual specificity protein kinase CLK4 (Q9HAZ1 whole entry, looked up): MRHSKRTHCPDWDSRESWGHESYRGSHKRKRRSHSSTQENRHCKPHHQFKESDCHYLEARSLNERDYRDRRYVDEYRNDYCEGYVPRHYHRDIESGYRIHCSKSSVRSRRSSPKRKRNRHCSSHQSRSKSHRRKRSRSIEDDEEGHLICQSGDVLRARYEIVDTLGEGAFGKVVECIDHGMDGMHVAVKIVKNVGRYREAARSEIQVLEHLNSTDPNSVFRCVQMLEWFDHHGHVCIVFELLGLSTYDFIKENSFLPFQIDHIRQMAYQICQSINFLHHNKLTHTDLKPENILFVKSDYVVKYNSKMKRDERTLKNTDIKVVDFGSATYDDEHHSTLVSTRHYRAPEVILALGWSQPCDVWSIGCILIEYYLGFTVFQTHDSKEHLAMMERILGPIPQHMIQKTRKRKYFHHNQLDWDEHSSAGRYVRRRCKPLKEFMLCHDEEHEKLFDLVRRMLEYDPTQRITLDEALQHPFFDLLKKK
Chain of Mitogen-activated protein kinase kinase kinase kinase 5 (Homo sapiens) (Q9Y4K4 whole entry, looked up): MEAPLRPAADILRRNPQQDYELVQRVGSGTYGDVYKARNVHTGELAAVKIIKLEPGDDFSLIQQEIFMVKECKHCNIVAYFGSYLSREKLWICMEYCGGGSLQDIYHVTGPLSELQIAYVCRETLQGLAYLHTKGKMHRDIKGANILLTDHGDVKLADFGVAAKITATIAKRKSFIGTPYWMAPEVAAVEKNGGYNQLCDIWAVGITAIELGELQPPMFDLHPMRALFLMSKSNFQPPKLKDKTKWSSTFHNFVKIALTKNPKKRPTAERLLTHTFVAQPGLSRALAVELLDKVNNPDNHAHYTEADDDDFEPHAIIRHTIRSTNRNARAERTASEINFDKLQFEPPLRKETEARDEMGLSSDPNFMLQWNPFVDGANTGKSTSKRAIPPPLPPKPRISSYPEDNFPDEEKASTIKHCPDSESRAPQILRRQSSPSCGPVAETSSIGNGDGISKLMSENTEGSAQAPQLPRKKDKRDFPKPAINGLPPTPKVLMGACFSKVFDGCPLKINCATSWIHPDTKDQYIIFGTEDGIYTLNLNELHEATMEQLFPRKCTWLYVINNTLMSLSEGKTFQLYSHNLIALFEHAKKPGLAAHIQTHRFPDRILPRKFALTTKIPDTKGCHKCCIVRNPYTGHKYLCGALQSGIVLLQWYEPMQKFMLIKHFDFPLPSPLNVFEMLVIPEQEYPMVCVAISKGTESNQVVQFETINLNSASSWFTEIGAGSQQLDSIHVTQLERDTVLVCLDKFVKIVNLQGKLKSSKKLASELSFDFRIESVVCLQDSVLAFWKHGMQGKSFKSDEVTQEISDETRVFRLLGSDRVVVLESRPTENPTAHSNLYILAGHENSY

`CCn1c(-c2nc3cc(C(=O)N4CCCC(N)C4)ccc3n2C)cc2ccccc21` (stereo unspecified): the pXC50 in [1] was under 4.8 M.

The compound `CCC(=O)N1CCN(c2ccc(-n3c(=O)ccc4cnc5ccc(-c6cnc7ccccc7c6)cc5c43)cc2C(F)(F)F)CC1` returned a % of control in [2] of 78%.

The compound `CN(C)CC#Cc1ccc2[nH]c3c(c2c1)-c1nc(N)ncc1CCC3` came in with a % of control in experiment [3] of 12%.

`Cc1cc(F)c(C(=O)Nc2cccc(-c3nncn3C(C)C)n2)cc1-n1cnc(C2CC2)c1` registered a % of control in experiment [4] of 100%.

On to `Cc1cc(CN)cc(C)c1-c1ncn(C)c1-c1cncn1C`, for which, in experiment [5], the dTM is -1.74 K.

Regarding `C=CC(=O)Nc1cc(-n2c(=O)ccc3cnc4ccc(-c5ccc(NS(C)(=O)=O)cc5)cc4c32)ccc1C`, the % of control in experiment [6] is 100%.

In experiment [7], `CNC(=O)Nc1ccc(-c2nc(N3CC4CCC(C3)O4)c3cnn(C4CCC5(CC4)OCCO5)c3n2)cc1` returned a % of control of 88%.

On to `CC[C@@H]1[C@H](F)C(=O)N[C@@H]1COc1nccc2cc(C(N)=O)c(OC)cc12` [ZIMLOVISERTIB], for which the values for the % of inhibition in experiment [8] and in experiment [9] were 3.51% and 16.3%, respectively.

Take `CCc1cccc(CC)c1NC(=O)c1nn(C)c2c1CCc1cnc(Nc3ccc(C(=O)NC4CCN(C)CC4)cc3OC(F)(F)F)nc1-2`: in experiment [10], the IC50 was over 10 µM.

For the compound `COCC(=O)NC/C=C/c1ccc2ncnc(Nc3ccc(Oc4ccc(C)nc4)c(C)c3)c2c1` [CP-724714], the % of control in experiment [11] came out at 68%.

In experiment [12], `N#Cc1cccc(-c2c[nH]c3ncnc(N4CCOCC4)c23)c1` returned a % of inhibition of 8%. The % of control in experiment [13] was determined as 94%.

In experiment [14], `C=CC(=O)Nc1ccc(C(=O)Nc2[nH]nc3c2CN(C(=O)N[C@H](CN(C)C)c2ccccc2)C3(C)C)cc1` gave a % of engagement of 6%.

Regarding `O[C@H]1CC[C@H](Nc2ncc3nc(Nc4c(F)cc(F)cc4F)n([C@H]4CCOC4)c3n2)CC1`, the % of control in [15] came out at 29%; in [16] it was 100%.

Broadly, the IC50 is the point on the concentration scale where inhibition reaches its midpoint. Low readings indicate greater potency, high ones weaker potency.
